# Reference: patent publication US12533408B2, “Treatment regimen for the treatment of autoimmune disorders” (Merck Patent GmbH, priority 2020, dated 2026)
# “And” between values parts separate entries of the source, which are not always exact repeats. Equal values may be shown once. “Also recorded” adds a separate entry of the source.
# What was measured:
# [1] = test system: lymphocytes; test: Absolute lymphocyte count (ALC) in vaccinated MAGNIFY-MS patients; assay type: in vivo, human
# [2] = test system: Influenza strain Victoria (Colorado/B); test: Hemagglutination inhibition (HAI) antibody titer, Victoria (Colorado/B); assay type: in vivo, influenza B virus; conditions: 12 patients
# [3] = test system: Influenza strain Yamagata (Phuket/B); test: Hemagglutination inhibition (HAI) antibody titer, Yamagata (Phuket/B); assay type: in vivo, influenza B virus; conditions: 12 patients
# [4] = test system: seasonal influenza; assay type: in vivo, influenza A and B
# [5] = test system: varicella zoster virus (VZV); assay type: in vivo; conditions: all time points examined, MAGNIFY patients
# [6] = test system: lymphocytes (ALC, CD19+ B, CD4+ T, CD8+ T); test: Post hoc analysis of ALC, lymphocyte subsets and lymphopenia by age (CLARITY, CLARITY Extension, ORACLE-MS, PREMIERE)
# Experimental: Assessments included incidence and severity of Grade ≥3 lymphopenia; severity of Grade ≥3 lymphopenia was defined based on the NCI CTCAE v3.0 toxicity grading system as ALC levels <500 cells/μL. The time to recover from Grade 3 lymphopenia to Grade ≤2 (ALC ≥500 cells/μL) and to Grade ≤1 (ALC ≥800 cells/μL) were also assessed. […] All assessments were performed for each baseline age group (≤50 years and >50 years).
# [7] = TEAEs of viral and bacterial infections in patients with Grade ≥3 lymphopenia, by age; assay type: in vivo, human; conditions: for incidence of bronchitis / incidence of herpes zoster / incidence of pneumonia / incidence of respiratory tract infection: Grade ≥3 lymphopenia; for overall incidence of TEAEs of viral and bacterial infections: Weeks 0-96, Grade ≥3 lymphopenia
# Experimental: The definitions used for before, during, and after lymphopenia were: before (before the start date of the first lymphopenia Grade ≥3), during (on or after the start date of the first lymphopenia up and including to the last date of the last lymphopenia), and after (after the end date of the last lymphopenia). The incidence of TEAEs were summarized by Preferred Term (PT) and were coded according to the MedDRA dictionary Version 20.0. All analyses were performed using Statistical Analysis Software (SAS®), Version 9.4 or higher.
# [8] = test system: COVID-19; test: COVID-19 cases in cladribine tablets treated MS patients (Merck KGaA Global Patient Safety Database); assay type: in vivo, human
# Experimental: On this date, there were 46 patients with confirmed or suspected COVID-19 within the safety database. Patient age was available for 35 patients, with a range of 22-67 years. There were 26 females, 12 males, and 8 patients for whom gender was not reported. Cases were defined as confirmed if a confirmatory diagnostic test was reported as positive. If no confirmatory test was performed or reported, then cases were described as suspected. […] Cases were designated as serious if they fulfilled the criteria of hospitalized, considered to be life-threatening, or medically significant. In keeping with usual pharmacovigilance practices, outcome was classified as recovered, recovering, not recovered, fatal, or not reported.
# [9] = test system: COVID-19; test: COVID-19 course in CLARIFY-MS and MAGNIFY-MS patients (case reports); assay type: in vivo, human
# Source text: Disease course is reported for each of the 3 patients with respect to severity of symptoms, confirmatory status of COVID-19, hospitalisation requirement and recovery status.
# Further to the overall outcome for each of the 3 patients from the phase IV studies CLARIFY-MS and MAGNIFY-MS, data on file includes some detail regarding extent and nature of symptoms COVID-19 and concomitant diseases and medications (Table 15).
# Aside from COVID-19, no other adverse events or relevant concomitant diseases and medications are reported for Patient 3.
# [10] = human, in vivo
# [11] = test system: lymphocytes (ALC, CD19+ B, CD4+ T, CD8+ T); conditions: second treatment year (Giovannoni et al., 2010); cited from earlier work
# [12] = clinical; conditions: human, plasma, po, 10 mg
# [13] = test system: IgG and IgM; test: Serum immunoglobulin levels (IgG, IgM) under cladribine tablets
# [14] = Incidence rates of infections in the clinical trial program of cladribine tablets
# [15] = Patient Canada VZV-70056800222530003, month 0, 9.7 wk after Shingrix, before first Mavenclad dose
# [16] = Patient Canada VZV-70056800222530003, month 3, 23.0 wk after Shingrix, 13.3 wk after first Mavenclad dose
compound,measurement,setting,value
"Nc1nc(Cl)nc2c1ncn2[C@H]1C[C@H](O)[C@@H](CO)O1 [cladribine tablets, Cladribine]",absolute lymphocyte levels,"[1]; Patient 70056800222010002, month 14, 1 month after vaccination",700 cells/µL
same,absolute lymphocyte levels,"[1]; Patient 70056800227010005, Month 6",900 cells/µL
same,ALC,"[1]; Patient Australia VZV-70056800221260001, month 2, 21.0 wk after Zostavax, 11.1 wk after first Mavenclad dose",960 cells/μL
same,ALC,"[1]; Patient Canada VZV-70056800222530003, Scr, 1.1 wk after Shingrix, 8.6 wk before first Mavenclad dose","2,100 cells/μL"
same,ALC,"[1]; Patient Canada VZV-70056800222530003, month 2, 18.0 wk after Shingrix, 8.3 wk after first Mavenclad dose",800 cells/μL
same,ALC,"[1]; Patient Canada VZV-70056800222530003, month 12","1,110 cells/μL"
same,ALC,"[1]; Patient Finland VZV-70056800221620004, month 2, 14.3 wk after Zostavax, 7.9 wk after first Mavenclad dose",670 cells/μL
same,lymphocytes after first treatment course,[1]; Shingrix case,800 cells/µL
same,2-fold change,[2],17%
same,4-fold change,[2],8%
same,Post-vacc seroprotection,[2],92%
same,Pre-vacc seroprotection,[2],83%
same,2-fold change,[3],17%
same,4-fold change,[3],0%
same,Post-vacc seroprotection,[3],92%
same,Pre-vacc seroprotection,[3],75%
same,proportion of previously seropositive patients (HAI≥40) with ≥2-fold increase against at least 1 strain,[4]; 8 patients,87.5%
same,proportion of previously seropositive patients (HAI≥40) with ≥4-fold increase against at least 1 strain,[4]; 8 patients,37.5%
same,"post-vaccination seroprotection, all Influenza strains",[4]; all vaccinated patients,92-100%
same,"rate of 2-fold change in AB titer, all strains",[4]; in vivo,17-67%
same,"post-vaccination antibody titer against VZV, protective titer",[5],≥ 100 IU/L
same,Median (range) time to recovery from the first Grade ≥3 lymphopenia to Grade ≤1,[6]; Age >50,6.06 (range: 0.2-46.5) months
same,Median (range) time to recovery from the first Grade ≥3 lymphopenia to Grade ≤2,[6]; Age >50,1.54 (range: 0.2-29.9) months
same,mean (SD) number of episodes of recovery from Grade ≥3 lymphopenia to Grade ≤1 per patient,[6]; Age >50,1.3 (0.5)
same,Median (range) time to recovery from the first Grade ≥3 lymphopenia to Grade ≤1,[6]; Age ≤50,5.49 (range: 0.2-88.4) months
same,Median (range) time to recovery from the first Grade ≥3 lymphopenia to Grade ≤2,[6]; Age ≤50,1.18 (range: 0.2-22.3) months
same,mean (SD) number of episodes of recovery from Grade ≥3 lymphopenia to Grade ≤1 per patient,[6]; Age ≤50,1.2 (0.5)
same,ALC decrease from baseline,"[6]; Week 9, Age >50",52.4%
same,CD8+ T lymphocytes decrease from baseline,"[6]; Week 9, Age >50",43.4%
same,CD19+ B lymphocytes decrease from baseline,"[6]; Week 9, Age >50",93.8%
same,median (range) ALC at Year 1 nadir,"[6]; Week 9, Age >50",0.9 (0.3-2.5) ×10^9 cells/L
same,ALC decrease from baseline,"[6]; Week 9, Age ≤50",43.5%
same,CD19+ B lymphocytes decrease from baseline,"[6]; Week 9, Age ≤50",90.2%
same,median (range) ALC at Year 1 nadir,"[6]; Week 9, Age ≤50",1.05 (0.2-6.7) ×10^9 cells/L
same,CD4+ T lymphocytes decrease from baseline,"[6]; Week 60, Age ≤50",66.4%
same,CD4+ T lymphocytes decrease from baseline,"[6]; Week 72, Age >50",73.7%
same,CD8+ T lymphocytes decrease from baseline,"[6]; Week 72, Age ≤50",41.8%
same,incidence of Grade ≥3 lymphopenia,"[6]; Weeks 0-96, Age >50 (30/110)",27.2%
same,incidence of Grade ≥3 lymphopenia,"[6]; Weeks 0-96, Age ≤50 (205/813)",25.2%
same,Grade 4 lymphopenia episodes,[6]; Year 1,No Grade 4 lymphopenia episodes
same,"Grade ≥3 lymphopenia, patients","[6]; Year 2, Age >50",20.0%
same,"Grade ≥3 lymphopenia, patients","[6]; Year 2, Age ≤50",18.7%
same,"Grade 4 lymphopenia, patients","[6]; Year 2, aged >50 years (1 patient)",1.0%
same,"Grade 4 lymphopenia, patients","[6]; Year 2, aged ≤50 years (2 patients)",0.3%
same,ALC decrease from baseline,"[6]; Year 2 nadir, Age >50",58.2%
same,ALC decrease from baseline,"[6]; Year 2 nadir, Age ≤50",55.4%
same,recovery of ALC and lymphocyte subsets (CD19+ B and CD4+ T) to normal levels,[6]; after last dose in treatment year 2,30-43 weeks
same,"Grade ≥3 lymphopenia, patients","[6]; treatment Year 1, Age >50",10.0%
same,"Grade ≥3 lymphopenia, patients","[6]; treatment Year 1, Age ≤50",8.3%
same,TEAEs of viral and bacterial infections during the Year 1 Grade ≥3 lymphopenia episode,[7]; Age >50,30%
same,patients with TEAEs severe in intensity (pneumonia and bronchitis),[7]; Age >50 (1 patient),3.3%
same,patients with TEAEs mild to moderate in intensity,[7]; Age >50 (16 patients),53.3%
same,TEAEs of viral and bacterial infections during the Year 1 Grade ≥3 lymphopenia episode,[7]; Age ≤50,21.5%
same,patients with TEAEs mild to moderate in severity,[7]; Age ≤50 (103 patients),50.2%
same,incidence of bronchitis,[7]; Age >50,10%
same,incidence of herpes zoster,[7]; Age >50,13.3%
same,incidence of pneumonia,[7]; Age >50,6.7%
same,incidence of respiratory tract infection,[7]; Age >50,6.7%
same,incidence of bronchitis,[7]; Age ≤50,5.9%
same,incidence of herpes zoster,[7]; Age ≤50,3.4%
same,incidence of pneumonia,[7]; Age ≤50,1.0%
same,incidence of respiratory tract infection,[7]; Age ≤50,1.5%
same,overall incidence of TEAEs of viral and bacterial infections,[7]; Age >50 (17/30),56.7%
same,overall incidence of TEAEs of viral and bacterial infections,[7]; Age ≤50 (105/205),51.2%
same,"most recent lymphocyte count, median","[8]; 9/46 patients, min 0.24, max 1.2",0.7 G/L
same,median time to onset of COVID-19 from last dose,[8]; 21/46 patients,180 days
same,range of time to onset of COVID-19 from last dose,[8]; 21/46 patients,3 to 559 days
same,COVID-19 cases medically significant,[8]; confirmed cases,1 cases
same,COVID-19 cases requiring hospitalisation,[8]; confirmed cases,3 cases
same,COVID-19 outcome: Not resolved,[8]; confirmed cases,1 cases
same,COVID-19 outcome: Recovered,[8]; confirmed cases,8 cases
same,COVID-19 outcome: Recovering,[8]; confirmed cases,2 cases
same,confirmed COVID-19 cases,[8]; of 46 total cases,18 cases
same,suspected COVID-19 cases,[8]; of 46 total cases,28 cases
same,patients with confirmed or suspected COVID-19,"[8]; of approximately 19,000 treated, as of 29 June 2020",46 patients
same,lymphocyte count between most recent course and onset of COVID-19,[8]; patient from the Netherlands,0.87 G/L
same,COVID-19 cases medically significant,[8]; suspected cases,1 cases
same,COVID-19 cases requiring hospitalisation,[8]; suspected cases,1 cases
same,COVID-19 outcome: Recovered,[8]; suspected cases,6 cases
same,COVID-19 outcome: Recovering,[8]; suspected cases,5 cases
same,COVID-19 cases that received mechanical ventilation,[8]; suspected or confirmed,None
same,COVID-19 deaths,[8]; suspected or confirmed,no deaths
same,COVID-19 symptoms in the majority of patients,[8]; suspected or confirmed,mild to moderate respiratory symptoms
same,Lymphocyte counts,"[9]; BL (baseline), c1-c3 = Patient 1, 2 (CLARIFY-MS), 3 (MAGNIFY-MS)",1.48 G/L and 2.80 G/L and 2.39 G/L
same,Lymphocyte counts,"[9]; M14 (January 2020), Patient 1",0.49 G/L
same,Lymphocyte counts,"[9]; Uns v. (17 Mar. 2020), Patient 2",0.20 G/L
same,Adverse events,"[9]; c1-c3 = Patient 1, 2, 3",Asthmatic bronchitis and Tachycardia and None and Swollen glands and Angina pectoris and Poss. reaction of EBV -
same,COVID-19 severity,"[9]; c1-c3 = Patient 1, 2, 3","SAE, Severe,; also recorded: Mild, not serious (no"
same,herpes zoster incidence,[10],0.83 episodes per 100 PY
same,incidence rate of serious infections,[10],0.8 /100 PY
same,incidence rate of total infections,[10],24.9 events per 100 patient-years (PY)
same,median ALC,[11],above 800 cells/mL
same,bioavailability,[12],45.6%
same,IgG immunoglobulin levels vs baseline,"[13]; 1, 2, 3, 6 and 12 month",comparable to baseline
same,"IgG, change vs baseline",[13]; Month 3,+10%
same,"IgM, change vs baseline",[13]; Month 3,−5%
same,"IgG, change vs baseline",[13]; Month 6,+11%
same,"IgM, change vs baseline",[13]; Month 6,−13%
same,"IgG, change vs baseline",[13]; Month 12,+3%
same,"IgM, change vs baseline",[13]; Month 12,+21%
same,IgG levels,[13]; Patient 70056800222520001,not affected
same,IgG immunoglobulin levels,"[13]; Patient 70056800227010005, any timepoint after treatment",not affected
same,IgM,"[13]; Patient Australia VZV-70056800221260001, month 3, 24.6 wk after Zostavax, 14.7 wk after first Mavenclad dose",59 mg/dL
same,IgG,[13]; [15],"1,410 mg/dL"
same,IgM,[13]; [15],190 mg/dL
same,IgG,[13]; [16],"1,510 mg/dL"
same,IgM,[13]; [16],166 mg/dL
same,IgM levels,"[13]; month 12, still in the normal range",slightly decreased
same,immunoglobulin numbers after cladribine treatment,[13]; various time points,not decreased
same,influenza incidence,[14]; lymphopenia grade 0-2,2.75 cases per 100 PY
same,influenza incidence,[14]; lymphopenia grade 3-4,3.35 /100 PY
